One compound from article PMC3789969, “The Allosteric Role of the AAA^+ Domain of ChlD Protein from the Magnesium Chelatase of Synechocystis Species PCC 6803” (The Journal of Biological Chemistry, 2013) can be followed below.

This assay concerns the target T1, magnesium chelatase (ChlI, His6-ChlD, His6-ChlH); porphyrin site (Synechocystis sp. PCC 6803, UniProt P73020).
T1 construct: recombinant from E. coli; His6 tags on ChlD and ChlH; copies are assay ratio; with Magnesium-chelatase subunit ChlI; Magnesium-chelatase subunit ChlD
In words: continuous fluorometric MgDIX formation assay, Michaelis-Menten fit. In kind it is biochemical. The following applies: 5 mM ATP, Mg2+ (mutant not saturated with Mg2+), pH 7.7, 34 °C, I 0.1.

As usually defined, the Km is the substrate concentration at which the rate is half of its maximum.

T1 sequence (P51634 whole entry, form open): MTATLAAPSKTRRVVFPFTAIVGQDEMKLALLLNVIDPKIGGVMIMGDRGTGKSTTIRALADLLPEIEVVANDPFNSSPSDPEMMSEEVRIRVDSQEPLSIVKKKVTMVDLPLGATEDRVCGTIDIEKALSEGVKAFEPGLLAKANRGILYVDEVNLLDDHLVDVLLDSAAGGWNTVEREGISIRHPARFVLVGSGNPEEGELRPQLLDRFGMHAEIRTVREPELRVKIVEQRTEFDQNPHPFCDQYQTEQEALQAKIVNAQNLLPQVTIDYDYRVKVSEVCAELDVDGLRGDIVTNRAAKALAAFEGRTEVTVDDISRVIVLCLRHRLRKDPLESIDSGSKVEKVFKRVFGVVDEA
T1 sequence (P73020 entry or part of it, form open): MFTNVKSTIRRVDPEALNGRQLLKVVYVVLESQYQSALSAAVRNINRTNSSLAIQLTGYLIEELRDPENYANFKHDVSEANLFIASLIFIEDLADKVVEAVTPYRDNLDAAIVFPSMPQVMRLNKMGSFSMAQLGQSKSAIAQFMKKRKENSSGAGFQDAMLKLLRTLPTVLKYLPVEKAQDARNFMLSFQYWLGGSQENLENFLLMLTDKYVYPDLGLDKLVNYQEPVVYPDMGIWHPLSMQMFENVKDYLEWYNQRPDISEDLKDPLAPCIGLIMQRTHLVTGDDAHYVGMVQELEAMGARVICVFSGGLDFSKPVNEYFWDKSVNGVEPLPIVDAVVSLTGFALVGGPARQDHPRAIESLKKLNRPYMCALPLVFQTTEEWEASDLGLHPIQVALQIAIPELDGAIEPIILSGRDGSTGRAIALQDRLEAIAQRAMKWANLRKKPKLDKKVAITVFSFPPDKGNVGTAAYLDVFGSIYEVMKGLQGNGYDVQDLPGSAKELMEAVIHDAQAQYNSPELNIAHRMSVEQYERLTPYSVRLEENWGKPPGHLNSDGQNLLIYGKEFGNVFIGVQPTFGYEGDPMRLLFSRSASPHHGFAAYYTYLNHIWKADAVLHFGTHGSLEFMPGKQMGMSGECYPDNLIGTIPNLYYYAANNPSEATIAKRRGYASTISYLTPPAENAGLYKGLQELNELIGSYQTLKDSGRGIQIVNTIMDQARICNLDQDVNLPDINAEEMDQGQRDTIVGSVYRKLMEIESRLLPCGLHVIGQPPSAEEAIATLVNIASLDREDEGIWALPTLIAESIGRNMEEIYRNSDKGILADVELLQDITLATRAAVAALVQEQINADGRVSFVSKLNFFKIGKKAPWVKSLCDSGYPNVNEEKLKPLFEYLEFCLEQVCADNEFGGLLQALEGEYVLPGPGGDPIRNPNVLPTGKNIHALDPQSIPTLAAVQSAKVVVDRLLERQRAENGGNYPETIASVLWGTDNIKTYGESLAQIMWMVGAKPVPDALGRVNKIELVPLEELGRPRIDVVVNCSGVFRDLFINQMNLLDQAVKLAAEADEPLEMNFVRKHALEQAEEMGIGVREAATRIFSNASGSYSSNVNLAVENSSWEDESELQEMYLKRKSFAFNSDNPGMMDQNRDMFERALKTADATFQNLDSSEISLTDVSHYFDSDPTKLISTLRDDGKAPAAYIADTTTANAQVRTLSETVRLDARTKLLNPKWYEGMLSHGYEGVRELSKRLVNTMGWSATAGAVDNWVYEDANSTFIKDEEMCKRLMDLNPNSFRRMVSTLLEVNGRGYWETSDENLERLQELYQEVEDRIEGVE
T1 sequence (P72772 whole entry R289A, form open, further chain): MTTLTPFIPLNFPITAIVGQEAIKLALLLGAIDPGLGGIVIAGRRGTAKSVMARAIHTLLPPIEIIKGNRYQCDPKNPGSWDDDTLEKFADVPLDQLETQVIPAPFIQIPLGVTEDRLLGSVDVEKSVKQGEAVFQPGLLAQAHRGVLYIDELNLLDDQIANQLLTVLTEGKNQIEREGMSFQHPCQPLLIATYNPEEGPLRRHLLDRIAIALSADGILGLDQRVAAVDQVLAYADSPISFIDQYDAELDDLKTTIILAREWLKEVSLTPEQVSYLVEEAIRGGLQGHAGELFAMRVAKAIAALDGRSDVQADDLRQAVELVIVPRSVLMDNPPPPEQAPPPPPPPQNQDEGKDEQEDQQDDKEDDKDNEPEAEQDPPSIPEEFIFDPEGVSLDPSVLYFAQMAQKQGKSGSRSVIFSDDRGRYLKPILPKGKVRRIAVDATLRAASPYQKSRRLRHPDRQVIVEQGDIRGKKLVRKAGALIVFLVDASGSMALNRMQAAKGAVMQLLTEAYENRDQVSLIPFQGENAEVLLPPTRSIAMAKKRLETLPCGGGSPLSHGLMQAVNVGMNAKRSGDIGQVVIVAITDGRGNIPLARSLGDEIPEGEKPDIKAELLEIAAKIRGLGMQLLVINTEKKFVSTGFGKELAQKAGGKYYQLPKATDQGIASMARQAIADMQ

For `CC1=C(CCC(=O)O)c2cc3nc(cc4[nH]c(cc4C)cc4[nH]c(cc1n2)cc4C)C(C)=C3CCC(=O)O` [deuteroporphyrin IX], the Km came to 0.99 ± 0.12 µM.
